Laboratory results taken from patent US12202835B2, “Substituted aromatic ring-linked dioxinoquinazolines and dioxinoquinolines as kinase inhibitors” (BEIJING SCITECH-MQ PHARMACEUTICALS LIMITED, priority 2018, dated 2025).

How the values were obtained:
c-MET kinase = c-MET kinase (Homo sapiens (Human), UniProt P08581); experiment: Assay of small molecular compounds for inhibiting the activity of c-MET kinase (LANCE TR-FRET); type: biochemical; details: read-out: CMET IC50
Outline: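 Eleven final concentrations from 2500 nM down to 0.042 nM, in 4% DMSO, were tested against human c-MET (2× stock 2 nM), with compound and enzyme premixed for 5 min. The phosphorylation reaction used 4× stock of 400 nM ULight-JAK-1 peptide and 40 μM ATP for 60 min at room temperature, then stop and detection steps. TR-FRET percent inhibition against positive and negative controls gave the IC50.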

VEGFR-2 kinase = VEGFR-2 kinase (Homo sapiens (Human), UniProt P35968); experiment: Assay of small molecular compounds for inhibiting the activity of VEGFR-2 kinase (LANCE TR-FRET); type: biochemical; details: read-out: VEGFR2 IC50
Chain of VEGFR-2 kinase (P35968 20-1356): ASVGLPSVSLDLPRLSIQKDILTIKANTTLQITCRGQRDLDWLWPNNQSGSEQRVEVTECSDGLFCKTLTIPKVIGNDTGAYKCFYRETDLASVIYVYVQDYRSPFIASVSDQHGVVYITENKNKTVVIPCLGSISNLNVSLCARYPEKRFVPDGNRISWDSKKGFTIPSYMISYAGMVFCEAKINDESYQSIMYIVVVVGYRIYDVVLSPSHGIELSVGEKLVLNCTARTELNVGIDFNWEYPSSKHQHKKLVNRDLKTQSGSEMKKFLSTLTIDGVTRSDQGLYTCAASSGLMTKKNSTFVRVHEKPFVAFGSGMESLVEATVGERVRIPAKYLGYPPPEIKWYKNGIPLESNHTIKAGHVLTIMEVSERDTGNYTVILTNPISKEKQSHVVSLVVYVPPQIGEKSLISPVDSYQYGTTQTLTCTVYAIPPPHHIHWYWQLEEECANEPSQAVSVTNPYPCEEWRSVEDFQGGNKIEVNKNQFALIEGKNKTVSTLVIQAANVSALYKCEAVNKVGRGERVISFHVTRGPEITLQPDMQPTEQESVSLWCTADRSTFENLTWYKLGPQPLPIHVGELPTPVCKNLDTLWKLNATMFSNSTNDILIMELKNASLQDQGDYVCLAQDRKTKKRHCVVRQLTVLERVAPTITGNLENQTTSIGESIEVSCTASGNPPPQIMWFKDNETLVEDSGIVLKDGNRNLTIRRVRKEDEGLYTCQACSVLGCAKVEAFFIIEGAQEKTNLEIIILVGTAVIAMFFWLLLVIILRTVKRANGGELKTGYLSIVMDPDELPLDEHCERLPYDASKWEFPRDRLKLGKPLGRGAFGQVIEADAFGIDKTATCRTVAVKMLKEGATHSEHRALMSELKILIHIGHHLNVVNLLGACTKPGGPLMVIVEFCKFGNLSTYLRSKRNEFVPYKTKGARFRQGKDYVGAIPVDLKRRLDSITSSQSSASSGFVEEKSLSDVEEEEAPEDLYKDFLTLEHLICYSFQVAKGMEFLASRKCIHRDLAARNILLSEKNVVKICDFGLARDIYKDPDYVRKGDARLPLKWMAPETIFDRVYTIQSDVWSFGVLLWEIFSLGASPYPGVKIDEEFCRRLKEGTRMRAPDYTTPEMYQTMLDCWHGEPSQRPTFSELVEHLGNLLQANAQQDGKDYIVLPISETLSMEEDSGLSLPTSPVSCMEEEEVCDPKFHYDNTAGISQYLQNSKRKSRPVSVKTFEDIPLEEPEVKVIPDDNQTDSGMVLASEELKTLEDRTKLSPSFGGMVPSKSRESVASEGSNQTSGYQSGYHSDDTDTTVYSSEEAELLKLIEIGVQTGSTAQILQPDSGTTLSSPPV
Outline: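 LANCE TR-FRET with human VEGFR-2 (2× stock 0.5 nM) preincubated 30 min with compound (final 2500 to 0.042 nM, 11-point 3-fold), then ULight-JAK-1 (Tyr1023) peptide/ATP added (4× stocks 200 nM/40 μM). Reaction 60 min room temperature, 4% DMSO; IC50 from inhibition-rate curve.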

Chain of c-MET kinase (P08581 25-1390): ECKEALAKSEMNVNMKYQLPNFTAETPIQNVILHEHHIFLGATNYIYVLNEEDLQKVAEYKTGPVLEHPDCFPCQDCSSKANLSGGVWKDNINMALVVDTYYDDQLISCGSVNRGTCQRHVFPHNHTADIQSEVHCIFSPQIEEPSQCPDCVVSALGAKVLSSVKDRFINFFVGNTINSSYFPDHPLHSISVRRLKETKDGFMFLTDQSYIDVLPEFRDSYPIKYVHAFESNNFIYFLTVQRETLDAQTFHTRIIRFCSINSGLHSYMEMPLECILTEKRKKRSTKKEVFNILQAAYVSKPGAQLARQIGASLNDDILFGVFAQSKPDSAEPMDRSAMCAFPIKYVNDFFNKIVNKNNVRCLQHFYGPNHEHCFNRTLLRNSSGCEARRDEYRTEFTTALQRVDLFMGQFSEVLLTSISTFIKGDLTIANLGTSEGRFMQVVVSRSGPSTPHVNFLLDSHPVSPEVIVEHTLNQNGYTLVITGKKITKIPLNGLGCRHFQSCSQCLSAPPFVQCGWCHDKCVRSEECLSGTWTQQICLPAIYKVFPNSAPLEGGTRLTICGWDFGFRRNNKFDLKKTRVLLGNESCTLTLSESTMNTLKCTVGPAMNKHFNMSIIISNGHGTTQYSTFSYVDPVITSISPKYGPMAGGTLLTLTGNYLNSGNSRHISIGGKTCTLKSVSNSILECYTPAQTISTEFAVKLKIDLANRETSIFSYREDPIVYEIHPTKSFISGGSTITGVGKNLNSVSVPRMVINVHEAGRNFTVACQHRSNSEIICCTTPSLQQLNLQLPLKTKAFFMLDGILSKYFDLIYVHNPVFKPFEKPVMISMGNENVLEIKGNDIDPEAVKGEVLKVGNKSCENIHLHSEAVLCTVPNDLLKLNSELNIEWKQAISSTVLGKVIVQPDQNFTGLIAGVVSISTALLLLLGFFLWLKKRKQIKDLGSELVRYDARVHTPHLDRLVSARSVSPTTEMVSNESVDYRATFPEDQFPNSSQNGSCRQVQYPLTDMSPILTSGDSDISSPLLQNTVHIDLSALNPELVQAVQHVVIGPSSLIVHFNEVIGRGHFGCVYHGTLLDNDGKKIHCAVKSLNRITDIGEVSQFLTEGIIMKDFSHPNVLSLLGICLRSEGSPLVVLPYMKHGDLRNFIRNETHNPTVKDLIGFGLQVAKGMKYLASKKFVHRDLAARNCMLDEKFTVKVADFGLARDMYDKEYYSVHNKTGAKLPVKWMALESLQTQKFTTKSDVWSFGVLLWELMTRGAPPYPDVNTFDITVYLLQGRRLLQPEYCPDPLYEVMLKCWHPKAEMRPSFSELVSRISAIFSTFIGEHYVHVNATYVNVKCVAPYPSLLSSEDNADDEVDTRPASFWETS

SMILES	IC50 (c-MET kinase)	IC50 (VEGFR-2 kinase)
COCCOc1cc2nccc(Oc3ccc(NC(=O)c4cn(C(C)C)c(=O)n(-c5ccc(F)cc5)c4=O)cc3F)c2c2c1OCCO2 [Example 43, N-(3-fluoro-4-((5-(2-methoxyethoxy)-2,3-dihydro-[1,4]dioxino[2,3-f]quinolin-10-yl)oxy)phenyl)-3-(4-fluorophenyl)-1-isopropyl-2,4-dioxo-1,2,3,4-tetrahydropyrimidine-5-carboxamide]	≤ 50 nM	–
COc1cc2ncnc(Oc3ccc(NC(=O)c4c(OC)ccn(-c5ccc(F)cc5)c4=O)cc3F)c2c2c1OCCO2 [Example 2, N-(3-fluoro-4-((5-methoxy-2,3-dihydro-[1,4]dioxino[2,3-f]quinazolin-10-yl)oxy)phenyl)-1-(4-fluorophenyl)-4-methoxy-2-oxo-1,2-dihydropyridine-3-carboxamide]	≤ 50 nM	50 to 500 nM
CCOc1ccn(-c2ccc(F)cc2)c(=O)c1C(=O)Nc1ccc(Oc2ccnc3cc(OCC#N)c4c(c23)OCCO4)c(F)c1 [Example 56, N-(4-((5-(cyanomethoxy)-2,3-dihydro-[1,4]dioxino[2,3-f]quinolin-10-yl)oxy)-3-fluorophenyl)-4-ethoxy-1-(4-fluorophenyl)-2-oxo-1,2-dihydropyridine-3-carboxamide]	≤ 50 nM	50 to 500 nM
CC(C)n1cc(C(=O)Nc2ccc(Oc3ccnc4cc(OCCCN5CCCC5)c5c(c34)OCCO5)c(F)c2)c(=O)n(-c2ccc(F)cc2)c1=O [Example 77, N-(3-fluoro-4-((5-(3-(pyrrolidin-1-yl)propoxy)-2,3-dihydro-[1,4]dioxino[2,3-f]quinolin-10-yl)oxy)phenyl)-3-(4-fluorophenyl)-1-isopropyl-2,4-dioxo-1,2,3,4-tetrahydropyrimidine-5-carboxamide]	≤ 50 nM	50 to 500 nM
CC(C)n1cc(C(=O)Nc2ccc(Oc3ccnc4cc(OCCCO)c5c(c34)OCCO5)c(F)c2)c(=O)n(-c2ccc(F)cc2)c1=O [Example 79, N-(3-fluoro-4-((5-(3-hydroxypropoxy)-2,3-dihydro-[1,4]dioxino[2,3-f]quinolin-10-yl)oxy)phenyl)-3-(4-fluorophenyl)-1-isopropyl-2,4-dioxo-1,2,3,4-tetrahydropyrimidine-5-carboxamide]	≤ 50 nM	–
CC(=O)N1CCN(CCCOc2cc3nccc(Oc4ccc(NC(=O)c5cn(C(C)C)c(=O)n(-c6ccc(F)cc6)c5=O)cc4F)c3c3c2OCCO3)CC1 [Example 75, N-(3-fluoro-4-((5-(3-(4-acetylpiperazin-1-yl)propoxy)-2,3-dihydro-[1,4]dioxino[2,3-f]quinolin-10-yl)oxy)phenyl)-3-(4-fluorophenyl)-1-isopropyl-2,4-dioxo-1,2,3,4-tetrahydropyrimidine-5-carboxamide]	≤ 50 nM	–
COc1cn(-c2ccc(F)cc2C)nc1C(=O)Nc1ccc(Oc2ncnc3cc(OCCCN4CCOCC4)c4c(c23)OCCO4)c(F)c1 [Example 11, 1-(4-fluoro-2-methylphenyl)-N-(3-fluoro-4-((5-(3-morpholinopropoxy)-2,3-dihydro-[1,4]dioxino[2,3-f]quinazolin-10-yl)oxy)phenyl)-4-methoxy-1H-pyrazole-3-carboxamide]	≤ 50 nM	50 to 500 nM
CCOc1ccn(-c2ccc(F)cc2)c(=O)c1C(=O)Nc1ccc(Oc2ccnc3cc(OC4COC4)c4c(c23)OCCO4)c(F)c1 [Example 64, N-(4-((5-((oxetan-3-yl)oxy)-2,3-dihydro-[1,4]dioxino[2,3-f]quinolin-10-yl)oxy)-3-fluorophenyl)-4-ethoxy-1-(4-fluorophenyl)-2-oxo-1,2-dihydropyridine-3-carboxamide]	≤ 50 nM	50 to 500 nM
CCOc1cc2nccc(Oc3ccc(NC(=O)c4c(OCC)ccn(-c5ccc(F)cc5)c4=O)cc3F)c2c2c1OCCO2 [Example 62, N-(4-((5-ethoxy-2,3-dihydro-[1,4]dioxino[2,3-f]quinolin-10-yl)oxy)-3-fluorophenyl)-4-ethoxy-1-(4-fluorophenyl)-2-oxo-1,2-dihydropyridine-3-carboxamide]	≤ 50 nM	≤ 50 nM
CCOc1ccn(-c2ccc(F)cc2)c(=O)c1C(=O)Nc1ccc(Oc2ccnc3cc(OCCCN4CCC(C)(O)CC4)c4c(c23)OCCO4)c(F)c1 [Example 69, N-(4-((5-(3-(4-hydroxy-4-methylpiperidin-1-yl)propoxy)-2,3-dihydro-[1,4]dioxino[2,3-f]quinolin-10-yl)oxy)-3-fluorophenyl)-4-ethoxy-1-(4-fluorophenyl)-2-oxo-1,2-dihydropyridine-3-carboxamide]	≤ 50 nM	≤ 50 nM
CCOc1ccn(-c2ccc(F)cc2)c(=O)c1C(=O)Nc1ccc(Oc2ccnc3cc(OC(C)C)c4c(c23)OCCO4)c(F)c1 [Example 63, N-(4-((5-isopropoxy-2,3-dihydro-[1,4]dioxino[2,3-f]quinolin-10-yl)oxy)-3-fluorophenyl)-4-ethoxy-1-(4-fluorophenyl)-2-oxo-1,2-dihydropyridine-3-carboxamide]	≤ 50 nM	50 to 500 nM
CCOc1ccn(-c2ccc(F)cc2)c(=O)c1C(=O)Nc1ccc(Oc2ccnc3cc(OCCCN4CCOCC4)c4c(c23)OCCO4)c(Cl)c1 [Example 72, N-(4-((5-(3-morpholinopropoxy)-2,3-dihydro-[1,4]dioxino[2,3-f]quinolin-10-yl)oxy)-3-chlorophenyl)-4-ethoxy-1-(4-fluorophenyl)-2-oxo-1,2-dihydropyridine-3-carboxamide]	≤ 50 nM	≤ 50 nM
CC(C)n1cc(C(=O)Nc2ccc(Oc3ccnc4cc(OCCCN5CCC(C)(C)CC5)c5c(c34)OCCO5)c(F)c2)c(=O)n(-c2ccc(F)cc2)c1=O [Example 92, N-(3-fluoro-4-((5-(3-(4,4-dimethylpiperidin-1-yl)propoxy)-2,3-dihydro-[1,4]dioxino[2,3-f]quinolin-10-yl)oxy)phenyl)-3-(4-fluorophenyl)-1-isopropyl-2,4-dioxo-1,2,3,4-tetrahydropyrimidine-5-carboxamide]	50 to 500 nM	500 to 5000 nM

Second part, the compound after the results:

IC50 (c-MET kinase)	IC50 (VEGFR-2 kinase)	SMILES
≤ 50 nM	≤ 50 nM	CCOc1ccn(-c2ccc(F)cc2)c(=O)c1C(=O)Nc1ccc(Oc2ccnc3cc(OCCCN(C)C4CCC4)c4c(c23)OCCO4)c(F)c1 [Example 71, N-(4-((5-(3-(cyclobutyl(methyl)amino)propoxy)-2,3-dihydro-[1,4]dioxino[2,3-f]quinolin-10-yl)oxy)-3-fluorophenyl)-4-ethoxy-1-(4-fluorophenyl)-2-oxo-1,2-dihydropyridine-3-carboxamide]
≤ 50 nM	≤ 50 nM	CCOc1ccn(-c2ccc(F)cc2)c(=O)c1C(=O)Nc1ccc(Oc2ccnc3cc(OCC(C)C)c4c(c23)OCCO4)c(F)c1 [Example 58, N-(4-((5-(isobutyloxy)-2,3-dihydro-[1,4]dioxino[2,3-f]quinolin-10-yl)oxy)-3-fluorophenyl)-4-ethoxy-1-(4-fluorophenyl)-2-oxo-1,2-dihydropyridine-3-carboxamide]
≤ 50 nM	50 to 500 nM	CCOc1ccn(-c2ccc(F)cc2)c(=O)c1C(=O)Nc1ccc(Oc2ccnc3cc(OC4CCOC4)c4c(c23)OCCO4)c(F)c1 (stereo not drawn) [Example 65, N-(4-((5-((tetrahydrofuran-3-yl)oxy)-2,3-dihydro-[1,4]dioxino[2,3-f]quinolin-10-yl)oxy)-3-fluorophenyl)-4-ethoxy-1-(4-fluorophenyl)-2-oxo-1,2-dihydropyridine-3-carboxamide]
≤ 50 nM	50 to 500 nM	CCOc1ccn(-c2ccc(F)cc2)c(=O)c1C(=O)Nc1ccc(Oc2ccnc3cc(OCCCN4CCOCC4)c4c(c23)OCCO4)cc1Cl [Example 73, N-(2-chloro-4-((5-(3-morpholinopropoxy)-2,3-dihydro-[1,4]dioxino[2,3-f]quinolin-10-yl)oxy)phenyl)-4-ethoxy-1-(4-fluorophenyl)-2-oxo-1,2-dihydropyridine-3-carboxamide]
≤ 50 nM	≤ 50 nM	COc1cc2ncnc(Oc3ccc(NC(=O)c4cccn(-c5ccc(F)cc5)c4=O)cc3F)c2c2c1OCCO2 [Example 1, N-(3-fluoro-4-((5-methoxy-2,3-dihydro-[1,4]dioxino[2,3-f]quinazolin-10-yl)oxy)phenyl)-1-(4-fluorophenyl)-2-oxo-1,2-dihydropyridine-3-carboxamide]
≤ 50 nM	500 to 5000 nM	COCCCOc1cc2nccc(Oc3ccc(NC(=O)c4cn(C)c(=O)n(-c5ccc(F)cc5)c4=O)cc3F)c2c2c1OCCO2 [Example 80, N-(3-fluoro-4-((5-(3-methoxypropoxy)-2,3-dihydro-[1,4]dioxino[2,3-f]quinolin-10-yl)oxy)phenyl)-3-(4-fluorophenyl)-1-methyl-2,4-dioxo-1,2,3,4-tetrahydropyrimidine-5-carboxamide]
≤ 50 nM	≤ 50 nM	CCOc1ccn(-c2ccc(F)cc2)c(=O)c1C(=O)Nc1ccc(Oc2ccnc3cc(OCCCN4CCS(=O)(=O)CC4)c4c(c23)OCCO4)c(F)c1 [Example 51, N-(4-((5-(3-(1,1-dioxidothiomorpholino)propoxy)-2,3-dihydro-[1,4]dioxino[2,3-f]quinolin-1 0-yl)oxy)-3-fluorophenyl)-4-ethoxy-1-(4-fluorophenyl)-2-oxo-1,2-dihydropyridine-3-carboxamide]
≤ 50 nM	≤ 50 nM	CCOc1ccn(-c2ccc(F)cc2)c(=O)c1C(=O)Nc1ccc(Oc2ccnc3cc(OCCCO)c4c(c23)OCCO4)c(F)c1 [Example 54, N-(4-((5-(3-hydroxypropoxy)-2,3-dihydro-[1,4]dioxino[2,3-f]quinolin-10-yl)oxy)-3-fluorophenyl)-4-ethoxy-1-(4-fluorophenyl)-2-oxo-1,2-dihydropyridine-3-carboxamide]
